Data from patent publication US20260137786A1, “FLUORESCENT COMPOUNDS FOR SYNERGISTIC PHOTODYNAMIC AND PHOTOTHERMAL CANCER THERANOSTIC” (The Hong Kong University of Science and Technology, priority 2022, published 2026).

Key:
Assay type in all cases: physicochemical
[1] = Aggregation behaviour (AIE) in THF/water mixtures; details: increasing water fraction
Method: (§1) First, the absorption and emission spectra were recorded. From FIG. 3a, the maximum absorptions of TPE-TBT and TPA-TBT are located at 582 and 620 nm, respectively, which display a redshift because of the enhancement of D-A strength from TPE-TBT to TPA-TBT. In addition, the emission spectra of the two molecules peaked at 750 and 830 nm, respectively (FIG. 3b). […] The aggregation behaviors of the compounds were then investigated. After adding poor solvent water to the THE solution, the fluorescence intensities of the two luminogens are first reduced at low water fractions (0-50% of water) resulting from the twisted intramolecular charge transfer (TICT) effect.

[2] = Absorption and emission (PL) spectra in THF solution; details: for emission spectra peak / maximum absorption: 10 μM
Method: as §1

[3] = Fluorescence quantum yield (QY)
Method: The fluorescence quantum yield (QY) of the two compounds in the solid state, NPs, THF, and other solvents, were also measured (FIG. 3d).
For better use in cancer theranostic, TPA-TBT and TPE-TBT were fabricated into nanoparticles (NPs) through the nanoprecipitation method using DSPE-PEG2000 as an encapsulation matrix. The hydrodynamic diameters of the two NPs were confirmed by dynamic light scattering (DLS). […] The UV/Vis absorption and fluorescence emission spectra of the two kinds of NPs were also measured, and the results are similar to that in the THF solutions. The fluorescence quantum yield (QY) of the two compounds in the solid state, NPs, THF, and other solvents, were also measured (FIG. 3d). […] ROS production efficiency and PCE were investigated to further explore the phototherapy potential of these AIEgens. We utilized a common ROS indicator Dichlorofluorescin Diace (H2DCF-DA), whose fluorescence can be sensitively activated by ROS, to indicate the overall ROS generation. From FIG. 3e, the fluorescence intensity of H2DCF-DA intensified rapidly in the presence of TPA-TBT NPs. Finally, it reached around 210-fold more robust than the initial intensity after 5 min upon white light irradiation, displaying a much higher ROS production efficiency than TPE-TBT NPs. […] While the PCE of TPE-TBT NPs is only 30%. Considering all the aspects, TPA-TBT NPs show longer fluorescence emission wavelength, higher ROS generation efficiency, and better photothermal efficiency. Therefore, TPA-TBT NPs are more promising for applications in the field of phototheranostic for synergistic cancer therapy.

Row | AIE intensity enhancement [1] [fold] | Stokes shift [2] [nm] | emission spectra peak [2] [nm] | maximum absorption [2] [nm] | fluorescence quantum yield (QY) ([3]; THE solution / solution state) | fluorescence quantum yield (QY) ([3]; solid state) [%] | Structure (SMILES)
1 | 3 | 210 | 830 | 620 | 5% | 13 | CCCCCCC(CCCC)Cc1cc(-c2ccc(N(c3ccc(OC)cc3)c3ccc(OC)cc3)cc2)sc1-c1c2c(c(-c3sc(-c4ccc(N(c5ccc(OC)cc5)c5ccc(OC)cc5)cc4)cc3CC(CCCC)CCCCCC)c3nn(CC(CC)CCCC)nc13)N=S=N2 (stereo not drawn) [TPA-TBT]
2 |  |  | 750 | 582 | remarkable QY |  | CCCCCCC(CCCC)Cc1cc(-c2ccc(C(=C(c3ccc(OC)cc3)c3ccc(OC)cc3)c3ccccc3)cc2)sc1-c1c2c(c(-c3sc(-c4ccc(C(=C(c5ccc(OC)cc5)c5ccc(OC)cc5)c5ccccc5)cc4)cc3CC(CCCC)CCCCCC)c3nn(CC(CC)CCCC)nc13)N=S=N2 (stereo not drawn) [TPE-TBT]
